From patent EP4745135A1 (Gluetacs Therapeutics (Shanghai) Co., Ltd., priority 2023, dated 2025)

Assays:
[1] = system: Human breast cancer cell (MCF-7); experiment: Tumor cell proliferation inhibition (CellTiter-Meiluncell luminescent cell viability assay); settings: MCF7, 96 h; for inhibition at 0.01 µM: read-out: Inhibition Rate at 10 nM (%); for inhibition at 0.5 µM: read-out: Inhibition Rate at 500 nM (%)
[2] = molecular target: T1, human Cereblon WT GST-tagged protein (Homo sapiens, UniProt Q96SW2); experiment: CRBN-binding affinity, HTRF (CEREBLON BINDING kit); settings: for inhibition at 0.5 µM: read-out: Inhibition Rate at 0.5 µM (%); for inhibition at 2 µM: read-out: Inhibition Rate at 2 µM (%)
T1 construct: purchased CISBIO 64BDCRBNPEH

GSPT1 = experiment: Western blot, degradation of substrate protein in hPBMCs; assay type: cell-based, Human; settings: 24 hours treatment, compounds at 50 nM and 500 nM (concentration behind the class not stated)
IKZF3 = molecular target: T2, IKZF3 (Homo sapiens, UniProt Q96SW2+Q9UKT9); experiment: as above; assay type: cell-based; settings: 24 hours treatment, compounds at 50 nM and 500 nM (concentration behind the class not stated)
T2 construct: effects of the compounds of the present disclosure on the expression of target proteins in cells; endogenous in cells; host or cells: human PBMCs (Milecell Biotechnologies)

IKZF1 = molecular target: T3, IKZF1 (Homo sapiens, UniProt Q13422+Q96SW2); experiment: as above; assay type: cell-based; settings: 24 hours treatment, compounds at 50 nM and 500 nM (concentration behind the class not stated)
T3 construct: effects of the compounds of the present disclosure on the expression of target proteins in cells; endogenous in cells; host or cells: human PBMCs (Milecell Biotechnologies)

CK1α = molecular target: T4, CK1α (Homo sapiens, UniProt P48729+Q96SW2); experiment: as above; assay type: cell-based; settings: 24 hours treatment, compounds at 50 nM and 500 nM (concentration behind the class not stated)
T4 construct: effects of the compounds of the present disclosure on the expression of target proteins in cells; endogenous in cells; host or cells: human PBMCs (Milecell Biotechnologies)

IKZF2 = molecular target: T5, IKZF2 (Homo sapiens, UniProt Q96SW2+Q9UKS7); experiment: as above; assay type: cell-based; settings: 24 hours treatment, compounds at 50 nM and 500 nM (concentration behind the class not stated)
T5 construct: effects of the compounds of the present disclosure on the expression of target proteins in cells; endogenous in cells; host or cells: human PBMCs (Milecell Biotechnologies)

WEE1 = molecular target: T6, WEE1 (Homo sapiens, UniProt P30291+Q96SW2); experiment: as above; assay type: cell-based; settings: 24 hours treatment, compounds at 50 nM and 500 nM (concentration behind the class not stated)
T6 construct: effects of the compounds of the present disclosure on the expression of target proteins in cells; endogenous in cells; host or cells: human PBMCs (Milecell Biotechnologies)

[3] = system: Human malignant melanoma cell line: A375; experiment: Tumor cell proliferation inhibition (CellTiter-Meiluncell luminescent cell viability assay); settings: A-375, 96 h; for inhibition at 0.01 µM: read-out: Inhibition Rate at 10 nM (%); for inhibition at 0.5 µM: read-out: Inhibition Rate at 500 nM (%)
Procedure: (§1) The tumor cells used herein were cultured in a cell culture medium listed in table 2 at 37°C in an incubator with 5% CO2. Prior to experimentation, all cell lines used were correctly identified by STR profiling, and tested negative for mycoplasma contamination using a mycoplasma detection kit through routine screenings.
(§2) The IC50 values of the compounds of the present disclosure (including the compounds in Table 1 and Examples) were determined using the CellTiter-Meiluncell Luminescent Cell Viability Assay Kit from Dalian Meilun Biotech Co., Ltd. The detailed procedure is as follows: Tumor cells were seeded in 96-well cell culture plates at the densities specified in Table 3. On the following day, the test compounds of the present disclosure were subjected to serial dilution. The dilution can be performed according to one of the following two methods: • (1) The first dilution method: The test compounds of the present disclosure (including the compounds in Table 1 and Examples) were subjected to 5-fold serial dilutions starting from a highest concentration of 2000 µM, resulting in a total of 9 concentrations from high to low (2000, 400, 80, 16, 3.2, 0.64, 0.128, 0.0256, 0.00512 µM). Subsequently, 0.5 µL of the test compound dilution was transferred into the 96-well plate containing the cells, with each well containing 100 µL of cell culture medium. […] Into the 96-well plate, the diluted test compounds and corresponding detection reagents were added, resulting in final test compound concentrations of 500 nM and 10 nM, respectively. The experimental procedure is described below using the diluted 2 µM test compound as an example.
(§3) 0.5 µL of the aforementioned diluted compound of the present disclosure (including the compounds in Table 1 and Examples) was added to the seeded cells in 100 µL of medium, yielding a final test compound concentration of 10 nM. After the cells were treated with the compounds of the present disclosure for a specified period, the cell viability assay reagent was added to the culture medium according to the kit's instructions to determine cell viability. […] All controls were treated using the same procedure as the compounds of the present disclosure. The growth inhibition curves for the compounds of the present disclosure were plotted using Prism GraphPad software, and the IC50 values were calculated therefrom.

[4] = system: Human colon cancer cell line: SW620; experiment: as above; settings: SW-620, 96 h; for inhibition at 0.01 µM: read-out: Inhibition Rate at 10 nM (%); for inhibition at 0.5 µM: read-out: Inhibition Rate at 500 nM (%)
Procedure: as §1, §2, §3

[5] = system: Human monocytic leukemia cell line: THP-1; experiment: as above; settings: THP-1, 96 h; for inhibition at 0.01 µM: read-out: Inhibition Rate at 10 nM (%); for inhibition at 0.5 µM: read-out: Inhibition Rate at 500 nM (%)
Procedure: as §1, §2, §3

[6] = system: Human multiple myeloma cell (MM.1S); experiment: as above
[7] = system: Human myeloid monocytic leukemia cell (MV-4-11); experiment: as above; settings: MV4-11, 96 h
[8] = system: Human acute myeloid leukemia cell line: Kasumi-1; experiment: as above; settings: Kasumi 1, 96 h
Procedure: as §1, §2, §3

[9] = system: Human multiple myeloma peripheral blood B lymphocyte cell (RPMI-8226); experiment: as above; settings: RPMI-8226, 96 h
[10] = system: Human T cell acute lymphoblastic leukemia cell (CCRF-CEM); experiment: as above; settings: 96 h
[11] = system: Human acute T lymphocytic leukemia cell (Molt4); experiment: as above; settings: MOLT-4, 96 h
[12] = system: Human T lymphocytic leukemia cell line: Jurkat; experiment: as above; settings: 96 h
Procedure: as §1, §2, §3

[13] = read-out: Inhibition Rate at 10 nM (%)
[14] = read-out: Inhibition Rate at 500 nM (%)

T3 sequence (Q13422 whole entry): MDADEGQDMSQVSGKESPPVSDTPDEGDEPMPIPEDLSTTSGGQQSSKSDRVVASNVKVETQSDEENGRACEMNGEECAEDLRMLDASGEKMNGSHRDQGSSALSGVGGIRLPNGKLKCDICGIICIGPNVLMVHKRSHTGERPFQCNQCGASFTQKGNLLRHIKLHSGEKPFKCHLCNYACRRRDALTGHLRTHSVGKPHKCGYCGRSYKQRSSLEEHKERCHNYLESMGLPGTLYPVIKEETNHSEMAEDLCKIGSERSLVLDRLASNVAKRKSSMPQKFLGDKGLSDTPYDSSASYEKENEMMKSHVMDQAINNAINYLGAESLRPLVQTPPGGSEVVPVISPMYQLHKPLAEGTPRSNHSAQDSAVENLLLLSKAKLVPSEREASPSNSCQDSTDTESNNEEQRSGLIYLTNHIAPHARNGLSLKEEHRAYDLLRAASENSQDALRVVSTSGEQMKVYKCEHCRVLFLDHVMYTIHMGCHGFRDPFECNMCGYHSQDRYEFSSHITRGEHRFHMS
T3 sequence (Q96SW2 whole entry): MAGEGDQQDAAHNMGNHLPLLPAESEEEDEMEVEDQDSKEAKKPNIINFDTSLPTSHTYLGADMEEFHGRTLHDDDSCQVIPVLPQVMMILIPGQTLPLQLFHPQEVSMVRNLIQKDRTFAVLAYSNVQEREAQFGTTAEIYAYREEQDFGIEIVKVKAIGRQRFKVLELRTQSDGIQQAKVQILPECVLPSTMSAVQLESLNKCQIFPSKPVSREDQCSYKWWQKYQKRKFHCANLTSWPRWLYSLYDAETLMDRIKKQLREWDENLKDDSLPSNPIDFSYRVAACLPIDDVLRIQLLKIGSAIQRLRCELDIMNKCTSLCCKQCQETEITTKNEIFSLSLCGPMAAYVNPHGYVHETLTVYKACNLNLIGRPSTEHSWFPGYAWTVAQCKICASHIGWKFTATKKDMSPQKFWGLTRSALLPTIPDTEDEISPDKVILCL
T3 sequence (Q16531 whole entry partner): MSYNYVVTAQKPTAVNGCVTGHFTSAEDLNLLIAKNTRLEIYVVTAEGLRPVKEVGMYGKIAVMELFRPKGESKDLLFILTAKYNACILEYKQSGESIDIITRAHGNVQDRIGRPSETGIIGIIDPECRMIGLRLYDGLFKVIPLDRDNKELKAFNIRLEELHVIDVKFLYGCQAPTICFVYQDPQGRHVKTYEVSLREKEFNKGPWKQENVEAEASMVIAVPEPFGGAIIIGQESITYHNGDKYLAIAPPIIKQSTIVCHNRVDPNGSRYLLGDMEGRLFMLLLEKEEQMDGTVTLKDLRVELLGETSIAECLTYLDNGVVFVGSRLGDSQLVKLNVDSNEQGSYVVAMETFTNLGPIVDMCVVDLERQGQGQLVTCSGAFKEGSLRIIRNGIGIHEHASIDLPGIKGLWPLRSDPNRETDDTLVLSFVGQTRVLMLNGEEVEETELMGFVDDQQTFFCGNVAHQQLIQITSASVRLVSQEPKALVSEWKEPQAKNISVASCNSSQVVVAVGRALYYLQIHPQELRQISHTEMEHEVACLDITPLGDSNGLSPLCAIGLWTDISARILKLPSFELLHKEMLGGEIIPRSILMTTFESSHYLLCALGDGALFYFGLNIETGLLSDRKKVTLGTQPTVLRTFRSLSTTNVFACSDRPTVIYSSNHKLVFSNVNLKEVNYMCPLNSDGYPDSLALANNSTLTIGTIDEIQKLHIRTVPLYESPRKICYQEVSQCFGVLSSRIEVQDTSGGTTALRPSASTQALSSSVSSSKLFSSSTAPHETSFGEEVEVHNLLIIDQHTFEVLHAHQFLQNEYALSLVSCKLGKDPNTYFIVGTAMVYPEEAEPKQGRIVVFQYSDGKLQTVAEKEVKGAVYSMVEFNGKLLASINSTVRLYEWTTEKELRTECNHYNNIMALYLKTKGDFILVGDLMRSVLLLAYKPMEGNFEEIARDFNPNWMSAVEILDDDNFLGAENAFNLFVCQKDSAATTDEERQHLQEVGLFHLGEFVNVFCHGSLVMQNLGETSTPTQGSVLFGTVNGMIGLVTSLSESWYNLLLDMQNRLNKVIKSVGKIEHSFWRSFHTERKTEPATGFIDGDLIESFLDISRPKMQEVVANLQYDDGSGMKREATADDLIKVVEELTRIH
T4 sequence (P48729 whole entry): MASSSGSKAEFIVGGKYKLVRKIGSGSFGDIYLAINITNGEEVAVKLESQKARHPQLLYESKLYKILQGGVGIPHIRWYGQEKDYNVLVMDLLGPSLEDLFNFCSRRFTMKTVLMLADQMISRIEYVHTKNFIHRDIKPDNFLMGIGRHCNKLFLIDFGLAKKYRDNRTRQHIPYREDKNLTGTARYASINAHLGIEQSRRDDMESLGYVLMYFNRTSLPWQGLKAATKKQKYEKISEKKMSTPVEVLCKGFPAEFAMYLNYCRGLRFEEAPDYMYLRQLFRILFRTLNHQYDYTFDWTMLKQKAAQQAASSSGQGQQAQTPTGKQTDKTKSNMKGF
T4 sequence (Q96SW2 whole entry): as the sequence (Q96SW2 whole entry) above
T4 sequence (Q16531 whole entry partner): as the sequence (Q16531 whole entry partner) above
T2 sequence (Q9UKT9 whole entry): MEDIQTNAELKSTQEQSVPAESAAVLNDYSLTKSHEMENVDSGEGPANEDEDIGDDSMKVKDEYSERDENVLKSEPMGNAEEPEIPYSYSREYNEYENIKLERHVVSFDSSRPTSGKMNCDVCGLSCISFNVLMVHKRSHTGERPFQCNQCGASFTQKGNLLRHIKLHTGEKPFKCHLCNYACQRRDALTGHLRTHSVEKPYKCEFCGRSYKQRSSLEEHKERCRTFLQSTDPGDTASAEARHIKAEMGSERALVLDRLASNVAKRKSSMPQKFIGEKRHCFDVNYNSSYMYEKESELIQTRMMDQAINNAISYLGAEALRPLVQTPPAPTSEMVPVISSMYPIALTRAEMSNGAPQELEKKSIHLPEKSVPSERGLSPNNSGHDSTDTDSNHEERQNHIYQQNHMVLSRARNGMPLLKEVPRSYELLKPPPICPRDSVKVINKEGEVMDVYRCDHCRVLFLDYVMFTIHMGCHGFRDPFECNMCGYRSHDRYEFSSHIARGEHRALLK
T2 sequence (Q96SW2 whole entry): as the sequence (Q96SW2 whole entry) above
T2 sequence (Q16531 whole entry partner): as the sequence (Q16531 whole entry partner) above
T1 sequence (Q96SW2 whole entry): as the sequence (Q96SW2 whole entry) above
T5 sequence (Q9UKS7 whole entry): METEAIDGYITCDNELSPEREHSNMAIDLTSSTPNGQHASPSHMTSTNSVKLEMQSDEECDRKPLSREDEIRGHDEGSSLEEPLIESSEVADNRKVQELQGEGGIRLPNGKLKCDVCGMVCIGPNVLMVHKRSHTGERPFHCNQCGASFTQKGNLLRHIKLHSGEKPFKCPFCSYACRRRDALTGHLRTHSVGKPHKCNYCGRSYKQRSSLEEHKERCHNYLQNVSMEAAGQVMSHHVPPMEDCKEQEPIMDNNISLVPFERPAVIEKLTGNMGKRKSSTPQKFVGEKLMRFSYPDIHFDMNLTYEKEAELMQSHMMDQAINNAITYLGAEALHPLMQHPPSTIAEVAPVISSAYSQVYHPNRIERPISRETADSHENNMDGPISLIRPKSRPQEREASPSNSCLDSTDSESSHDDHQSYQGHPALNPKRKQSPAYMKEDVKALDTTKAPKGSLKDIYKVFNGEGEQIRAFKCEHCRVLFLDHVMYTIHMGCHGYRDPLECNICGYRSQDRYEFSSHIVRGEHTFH
T5 sequence (Q96SW2 whole entry): as the sequence (Q96SW2 whole entry) above
T5 sequence (Q16531 whole entry partner): as the sequence (Q16531 whole entry partner) above
T6 sequence (P30291 whole entry): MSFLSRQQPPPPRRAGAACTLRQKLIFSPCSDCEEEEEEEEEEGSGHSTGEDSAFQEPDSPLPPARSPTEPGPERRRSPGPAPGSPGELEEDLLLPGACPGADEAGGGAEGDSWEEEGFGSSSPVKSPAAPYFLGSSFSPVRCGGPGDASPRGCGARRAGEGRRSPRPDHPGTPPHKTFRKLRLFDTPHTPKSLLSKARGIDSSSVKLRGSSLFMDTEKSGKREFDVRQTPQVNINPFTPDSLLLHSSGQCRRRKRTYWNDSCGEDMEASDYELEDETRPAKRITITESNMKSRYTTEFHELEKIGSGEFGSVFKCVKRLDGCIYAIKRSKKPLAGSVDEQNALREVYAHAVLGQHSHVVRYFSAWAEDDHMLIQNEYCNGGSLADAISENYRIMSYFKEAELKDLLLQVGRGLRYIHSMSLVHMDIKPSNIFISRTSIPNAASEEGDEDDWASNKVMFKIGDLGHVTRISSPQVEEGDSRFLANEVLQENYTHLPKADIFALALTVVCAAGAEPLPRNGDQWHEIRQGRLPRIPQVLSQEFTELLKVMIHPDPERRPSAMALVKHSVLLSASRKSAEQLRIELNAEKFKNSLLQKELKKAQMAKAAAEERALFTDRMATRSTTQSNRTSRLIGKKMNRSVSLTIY
T6 sequence (Q96SW2 whole entry): as the sequence (Q96SW2 whole entry) above
T6 sequence (Q16531 whole entry partner): as the sequence (Q16531 whole entry partner) above

Row | Compound | inhibition at 0.01 µM [1] | inhibition at 0.5 µM [1] | inhibition at 0.5 µM [2] | inhibition at 2 µM [2] | GSPT1 substrate protein remaining % (GSPT1) | IKZF3 substrate protein remaining % (IKZF3) | IKZF 1 substrate protein remaining % (IKZF1) | CK1α substrate protein remaining % (CK1α) | IKZF2 substrate protein remaining % (IKZF2) | Wee1 substrate protein remaining % (WEE1) | inhibition at 0.01 µM [3] | inhibition at 0.5 µM [3] | inhibition at 0.01 µM [4] | inhibition at 0.5 µM [4] | inhibition at 0.01 µM [5] | inhibition at 0.5 µM [5] | also measured
1 | O=C1CCC(N2Cc3cc(CN4CCN(c5nc(Cl)nc6ccsc56)CC4)ccc3C2=S)C(=O)N1 (centres unmarked) [GT-09331, 3-(5-((4-(2-chlorothieno[3,2-d]pyrimidin-4-yl)piperazin-1-yl)methyl)-1-thioxoisoindolin-2-yl)piperidine-2,6-dione] | 20 to 30% | 40 to 50% | 80 to 100% | 80 to 100% | A (0% ≤ substrate protein remaining % ≤ 80%) | B (80%< substrate protein remaining %≤ 100%) | B (80%< substrate protein remaining %≤ 100%) | B (80%< substrate protein remaining %≤ 100%) | B (80%< substrate protein remaining %≤ 100%) | B (80%< substrate protein remaining %≤ 100%) | 30 to 40% | 50 to 60% | – | – | – | – | –
2 | O=C1CCC(N2Cc3cc(CN4CC=C(c5ncnc6sc7c(c56)CCCC7)CC4)ccc3C2=S)C(=O)N1 (centres unmarked) [GT-09324, 3-(5-((4-(5,6,7,8-tetrahydrobenzo[4,5]thieno[2,3-d]pyrimidin-4-yl)-3,6-dihydropyridin-1(2H)-yl)methyl)-1-thioxoisoindolin-2-yl)piperidine-2,6-dione] | – | – | 60 to 80% | 80 to 100% | A (0% ≤ substrate protein remaining % ≤ 80%) | B (80%< substrate protein remaining %≤ 100%) | B (80%< substrate protein remaining %≤ 100%) | B (80%< substrate protein remaining %≤ 100%) | B (80%< substrate protein remaining %≤ 100%) | A (0% ≤ substrate protein remaining % ≤ 80%) | 30 to 40% | 80 to 100% | 20 to 30% | 80 to 100% | 10 to 20% | 80 to 100% | –
3 | Cc1nc(C2=CCN(Cc3ccc4c(c3)CN(C3CCC(=O)NC3=O)C4=S)CC2)c2ccsc2n1 (centres unmarked) [GT-09322, 3-(5-((4-(2-methylthieno[2,3-d]pyrimidin-4-yl)-3,6-dihydropyridin-1(2H)-yl)methyl)-1-thioxoisoindolin-2-yl)piperidine-2,6-dione] | – | – | 60 to 80% | 80 to 100% | A (0% ≤ substrate protein remaining % ≤ 80%) | B (80%< substrate protein remaining %≤ 100%) | A (0% ≤ substrate protein remaining % ≤ 80%) | B (80%< substrate protein remaining %≤ 100%) | B (80%< substrate protein remaining %≤ 100%) | A (0% ≤ substrate protein remaining % ≤ 80%) | 10 to 20% | 80 to 100% | 5 to 10% | 80 to 100% | 10 to 20% | 80 to 100% | –
4 | O=C1CCC(N2Cc3cc(CN4CC=C(c5ncnc6sccc56)CC4)ccc3C2=S)C(=O)N1 (centres unmarked) [GT-09314, 3-(5-((4-(thieno[2,3-d]pyrimidin-4-yl)-3,6-dihydropyridin-1(2H)-yl)methyl)-1-thioxoisoindolin-2-yl)piperidine-2,6-dione] | – | – | 80 to 100% | 80 to 100% | A (0% ≤ substrate protein remaining % ≤ 80%) | A (0% ≤ substrate protein remaining % ≤ 80%) | A (0% ≤ substrate protein remaining % ≤ 80%) | B (80%< substrate protein remaining %≤ 100%) | B (80%< substrate protein remaining %≤ 100%) | A (0% ≤ substrate protein remaining % ≤ 80%) | 5 to 10% | 40 to 50% | 10 to 20% | 80 to 100% | 5 to 10% | 80 to 100% | –
5 | O=C1CCC(N2Cc3cc(CN4CC=C(c5ncnc6sc7c(c56)CCC7)CC4)ccc3C2=S)C(=O)N1 (centres unmarked) [GT-09325, 3-(5-((4-(6,7-dihydro-5H-cyclopenta[4,5]thieno[2,3-d]pyrimidin-4-yl)-3,6-dihydropyridin-1(2H)-yl)methyl)-1-thioxoisoindolin-2-yl)piperidine-2,6-dione] | – | – | 60 to 80% | 80 to 100% | A (0% ≤ substrate protein remaining % ≤ 80%) | B (80%< substrate protein remaining %≤ 100%) | B (80%< substrate protein remaining %≤ 100%) | B (80%< substrate protein remaining %≤ 100%) | B (80%< substrate protein remaining %≤ 100%) | A (0% ≤ substrate protein remaining % ≤ 80%) | 20 to 30% | 80 to 100% | -15 to -5% | 80 to 100% | 5 to 10% | 80 to 100% | –
6 | O=C1CCC(N2Cc3cc(CN4CC=C(c5ccsc5)CC4)ccc3C2=S)C(=O)N1 (centres unmarked) [GT-08172, 3-(5-((4-(thiophen-3-yl)-3,6-dihydropyridin-1(2H)-yl)methyl)-1-thioxoisoindolin-2-yl)piperidine-2,6-dione] | 50 to 60% | 70 to 80% | 80 to 100% | 80 to 100% | A (0% ≤ substrate protein remaining % ≤ 80%) | A (0% ≤ substrate protein remaining % ≤ 80%) | A (0% ≤ substrate protein remaining % ≤ 80%) | A (0% ≤ substrate protein remaining % ≤ 80%) | A (0% ≤ substrate protein remaining % ≤ 80%) | A (0% ≤ substrate protein remaining % ≤ 80%) | – | – | – | – | – | – | inhibition at 0.01 µM ([6]; Homo sapiens, MM1.S, 96 h, read-out: Inhibition Rate at 10 nM (%)): 40 to 50%; Inhibition Rate at 500 nM (%) ([6]; MM.1S, 500 nM, 96 hours): la10; inhibition at 0.01 µM [7, 13]: 60 to 80%; inhibition at 0.5 µM [7, 14]: 80 to 100%; inhibition at 0.01 µM [8, 13]: 20 to 30%; inhibition at 0.5 µM [8, 14]: 80 to 100%; inhibition at 0.01 µM [9, 13]: 20 to 30%; inhibition at 0.5 µM [9, 14]: 80 to 100%; inhibition at 0.01 µM [10, 13]: 60 to 70%; inhibition at 0.5 µM [10, 14]: 80 to 100%; inhibition at 0.01 µM [11, 13]: 60 to 70%; inhibition at 0.5 µM [11, 14]: 80 to 100%; inhibition at 0.01 µM [12, 13]: 50 to 60%; inhibition at 0.5 µM [12, 14]: 80 to 100%
